Source: PubChem BioAssay (NCI)
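Where inhibition never reached the appropriate level, the endpoint shown equals the highest concentration tested. Otherwise, values were interpolated linearly from a five-concentration, 48-hour dose response in 96-well plates. TGI: total growth inhibition.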

Experiments:
Experiment in all cases: DTP human tumour cell line panel, 48 h
MCF7 breast = tested on: MCF7 breast
RXF 393 renal = tested on: RXF 393 renal
A498 renal = tested on: A498 renal
HOP-92 NSCLC = tested on: HOP-92 NSCLC
HT29 colon = tested on: HT29 colon
SF-295 CNS = tested on: SF-295 CNS
CCRF-CEM leukemia = tested on: CCRF-CEM leukemia
MDA-N = tested on: MDA-N
IGROV1 ovarian = tested on: IGROV1 ovarian
NCI-H522 lung = tested on: NCI-H522 lung

Compound | TGI (MCF7 breast) | TGI (RXF 393 renal) | TGI (A498 renal) | TGI (HOP-92 NSCLC) | TGI (HT29 colon) | TGI (SF-295 CNS) | TGI (CCRF-CEM leukemia) | TGI (MDA-N) | TGI (IGROV1 ovarian) | TGI (NCI-H522 lung)
CC(=O)OC(C)(C)CCC(=O)[C@](C)(O)[C@H]1[C@H](O)C[C@@]2(C)[C@@H]3CC=C4C(C)=C(OC5OC(CO)C(O)C(O)C5O)C(=O)C[C@@H]4[C@]3(C)C(=O)C[C@]12C (stereo partly drawn) | > 100 µM | > 100 µM | > 100 µM | > 100 µM | > 100 µM | > 100 µM | > 100 µM | > 100 µM | > 100 µM | > 100 µM
O=C(N/N=C(/COc1ccccc1Cl)N=Cc1ccncc1)c1ccncc1 | > 100 µM | > 100 µM | > 100 µM | > 100 µM | > 100 µM | > 100 µM | > 100 µM | > 100 µM | > 100 µM | > 100 µM
COc1ccc(C2SCC(=O)N2NC(=O)C(C)Oc2ccccc2C)cc1 (stereo not drawn) | > 100 µM | > 100 µM | > 100 µM | > 100 µM | > 100 µM | > 100 µM | > 100 µM | > 100 µM | > 100 µM | > 100 µM
COC(=O)NC(Cc1ccccc1)NC(C)=O (stereo not drawn) | > 100 µM | > 100 µM | > 100 µM | > 100 µM | > 100 µM | > 100 µM | > 100 µM | > 100 µM | > 100 µM | > 100 µM
Nc1nc(=O)n(C2OC(CO)C(O)C2O)c2ncc(-c3ccc(-c4ccccc4)cc3)nc12 (stereo not drawn) | > 100 µM | > 100 µM | > 100 µM | > 100 µM | > 100 µM | > 100 µM | > 100 µM | > 100 µM | > 100 µM | > 100 µM
O=C1CS[C@@](CC(c2ccc(Cl)cc2)c2ccc(Cl)cc2)(c2ccc(Cl)cc2)N1 | 26.4 µM | 17.6 µM | 45.8 µM | 75 µM | > 100 µM | 47.5 µM | > 100 µM | > 100 µM | > 100 µM | > 100 µM
O=[N+]([O-])c1ccc(O)c(/C=N/c2nc(-c3ccccc3)cs2)c1 | > 100 µM | 45.1 µM | > 100 µM | 75.2 µM | > 100 µM | > 95.9 µM | > 100 µM | > 83.6 µM | 74.3 µM | 38.1 µM
CCCc1nnc2sc(COc3cc(Cl)c(OCc4nn5c(CCC)nnc5s4)cc3Cl)nn12 | 72.9 µM | > 100 µM | 98.4 µM | 70.7 µM | > 100 µM | > 100 µM | 46.8 µM | > 100 µM | > 100 µM | > 100 µM
O=[N+]([O-])c1ccc(N2N=C(c3ccc4ccccc4c3O)CC2c2ccc(Cl)cc2)c([N+](=O)[O-])c1 (stereo not drawn) | > 100 µM | > 100 µM | > 100 µM | > 100 µM | > 100 µM | > 100 µM | 42.7 µM | 30.8 µM | > 100 µM | 62.4 µM
CC(C)(C)OC(=O)N1[C@@H]2Cc3ccc(N)cc3[C@@]1(C)c1ccccc12 | > 100 µM | 31.1 µM | 79.6 µM | 52.3 µM | 44.1 µM | > 100 µM | 64.9 µM | 45.3 µM | > 100 µM | 38.4 µM
Cc1cc2oc(C)c(S(=O)(=O)NC(=O)Nc3ccc(Cl)cc3)c(=O)c2c(=O)o1 | > 100 µM | > 100 µM | > 100 µM | > 100 µM | > 100 µM | > 100 µM | > 100 µM | > 100 µM | > 100 µM | > 100 µM
CCCN(CCC)C1CCc2c(ccc3cc[nH]c23)C1 (stereo not drawn) | > 100 µM | > 100 µM | > 100 µM | > 100 µM | > 100 µM | > 100 µM | 73.3 µM | > 100 µM | > 100 µM | > 100 µM
O=C(O)CCc1ccc2c(c1)CC1(Cc3ccccc3C1)C2 | > 100 µM | > 100 µM | > 100 µM | > 100 µM | > 100 µM | > 100 µM | > 100 µM | > 100 µM | > 100 µM | > 100 µM
Cc1c(O)c(OC2OC(CO)C(O)C(O)C2O)cc2c1C=C[C@@H]1[C@@]2(C)C(=O)C[C@]2(C)[C@@H]([C@@](C)(O)C(=O)CCC(C)(C)O)[C@H](O)C[C@@]12C (stereo partly drawn) | > 100 µM | 38.1 µM | 36.7 µM | 40.8 µM | 83.1 µM | 36 µM | > 100 µM | 77.5 µM | 44.3 µM | 67.2 µM
COC(=O)c1cccc(OC)c1C#Cc1c(OC)cccc1OC | > 100 µM | > 100 µM | > 100 µM | > 100 µM | > 100 µM | > 100 µM | > 100 µM | > 100 µM | > 100 µM | > 100 µM
O=[N+]([O-])c1cccc(Cl)c1Oc1ccc(S(=O)(=O)/N=C(\NO)Nc2ccc(Cl)cc2)cc1 | 32.2 µM | 30.9 µM | 28.2 µM | 17.1 µM | 30.8 µM | 34.4 µM | 29.7 µM | 26 µM | 35.6 µM | 20.2 µM
CCOC(=O)CCC(NC(=O)Cc1ccc(Oc2nc3ccccc3nc2-c2ccccc2)cc1)C(=O)OCC (stereo not drawn) | > 100 µM | > 100 µM | > 100 µM |  | > 100 µM | > 100 µM | > 100 µM | > 100 µM |  | > 100 µM
